The source of these data is ChEMBL document CHEMBL6182932, “Potent Cyclic Peptide Inhibitors Disrupt the FANCM-RMI Interaction” (J Med Chem, 2025).

Broadly, the IC50 is the concentration needed to halve the response being measured. One may read the Kd as the equilibrium constant for the complex coming apart.

The nature of data set [1]: Displacement of 5-TAMRA-SRDLFSVTFDLGFCSPDSDD-NH2 from recombinant N-terminal 6His/SUMO-tagged RMI1/2 (unknown origin) extracted from Escherichia coli BL21 (DE3) cells incubated for 1 hrs by competitive fluorescence polarization assay. Also noted: species or system Homo sapiens. As to conditions: for Activity: Homo sapiens. For orientation: Polarisation of emitted light reports the rotation of a fluorescent probe.

A short description of data set [2]: Binding affinity to N-terminal 6His/Avi-tagged biotinylated RMI1/2 (unknown origin) extracted from Escherichia coli BL21 (DE3) cells assessed as dissociation constant by SPR analysis. Also on record: species or system Homo sapiens.
Data set [3] concerns U2OS. Kind of data set: Disruption of FANCM-RMI1/2 protein-protein interaction in human U2OS cells assessed as reduction in FANCM pull down at 100 uM incubated for 4 hrs by co-immunoprecipitation based Western blot analysis. Type of data set: cell-based. (In western blotting, separated proteins are transferred to a membrane and probed.)
A short description of data set [4]: Proteolytic stability in Tris-HCl buffer at pH 7.8 assessed as alpha-chymotrypsin (unknown origin) mediated compound degradation at 20 uM incubated for 5 hrs by HPLC analysis. In kind it is ADME. Particulars: human, pH 7.8, 5 h.
For data set [5], the species on record is Homo sapiens. Kind of data set: Binding affinity to N-terminal 6His/Avi-tagged biotinylated RMI1/2 (unknown origin) extracted from Escherichia coli BL21 (DE3)cells by SPR analysis.

Active and inactive are the calls of the source. The calls are words filed in the database; no cut-off is given here. Positions of bridges follow the written chain, without caps; N, C: chain ends. Residues, ends and D or L forms follow the SMILES beside them.

With Ac-YSILFDAYYDSIPC-NH2, the IC50 in data set [1] stood at 95 nM. Turning to `CC[C@H](C)[C@@H]1NC(=O)[C@H](Cc2ccc(O)cc2)NC(=O)CSC[C@@H](C(=O)N[C@@H](CC(C)C)C(=O)N[C@@H](Cc2c[nH]c3ccccc23)C(=O)N[C@@H](CO)C(N)=O)NC(=O)[C@H](Cc2ccccc2)NC(=O)[C@H](CCCCN)NC(=O)[C@H]([C@@H](C)CC)NC(=O)[C@H](C(C)C)NC(=O)[C@H]([C@@H](C)O)NC(=O)[C@H](CC(=O)O)NC(=O)[C@H]([C@@H](C)O)NC(=O)[C@H](Cc2c[nH]c3ccccc23)NC(=O)[C@H](CCCNC(=N)N)NC(=O)[C@H](CC(N)=O)NC(=O)[C@H]([C@@H](C)O)NC1=O` ({CH2CO}-YITNRWTDTVIKFCLWS-NH2; thioether N-14), the Kd in data set [2] turned out to be 2 nM. Besides, the IC50 in data set [1] is 104 nM. On to Ac-YSIAFDKYYSIPC-NH2, for which, in data set [1], the IC50 worked out at 496 nM. Same read-out and setting: with Ac-YSILFDKYYAIPC-NH2 the figure was 69 nM; with Ac-YAILFDKYYSIPC-NH2, 115 nM. On to `CC[C@H](C)[C@@H]1NC(=O)[C@H](CC(=O)O)NC(=O)CSC[C@@H](C(N)=O)NC(=O)[C@H](CO)NC(=O)[C@H](Cc2ccccc2)NC(=O)[C@H](Cc2ccc(O)cc2)NC(=O)[C@@H]2CCCN2C(=O)[C@H]([C@@H](C)CC)NC(=O)[C@H](Cc2ccc(O)cc2)NC(=O)[C@H](CO)NC(=O)[C@H](CC(C)C)NC(=O)[C@H](Cc2ccc(O)cc2)NC(=O)[C@H](CCCCN)NC1=O` ({CH2CO}-DIKYLSYIPYFSC-NH2; thioether N-13), for which, in data set [1], the outcome was inactive. Ac-YSILFDKYYSIAC-NH2: the IC50 in data set [1] stood at 114 nM. The same measure, in the same setting: the result for Ac-YSILFDKYYSAPC-NH2 reads 999 nM; that for Ac-YSILADKYYSIPC-NH2, over 5000 nM.

As to Ac-YSILFAKYYSIPC-NH2, the IC50 in data set [1] was determined as 440 nM. Still for that read-out and setting: the result for Ac-YSILFDKYASIPC-NH2 reads over 5000 nM; that for Ac-YSILFDKYYSIPC-NH2, over 5000 nM.

On to `CC[C@H](C)[C@@H]1NC(=O)[C@H](CO)NC(=O)[C@H](Cc2ccc(O)cc2)NC(=O)CSC[C@@H](C(N)=O)NC(=O)[C@@H]2CCCN2C(=O)[C@H]([C@@H](C)CC)NC(=O)[C@H](CO)NC(=O)[C@H](Cc2ccc(O)cc2)NC(=O)[C@H](Cc2ccc(O)cc2)NC(=O)[C@H](CCCCN)NC(=O)[C@H](CC(=O)O)NC(=O)[C@H](Cc2ccccc2)NC(=O)[C@H](CC(C)C)NC1=O` ({CH2CO}-YSILFDKYYSIPC-NH2; thioether N-13), for which the Kd in data set [2] stood at 2.5 nM. In addition, in data set [3], the result was Active. Besides, the half-maximal inhibitory concentration (IC50) in data set [1] was determined as 54 nM. Further, in data set [4], the Stability entry is listed as “Stable”. Regarding `CC[C@H](C)[C@H](NC(=O)[C@H](CC(=O)O)NC(=O)[C@@H]1CSCC(=O)N[C@@H](Cc2ccc(O)cc2)C(=O)N[C@@H](Cc2ccc(O)cc2)C(=O)N[C@@H](CCCCN)C(=O)N2CCC[C@H]2C(=O)N[C@@H]([C@@H](C)O)C(=O)N1)C(=O)N[C@H](C(=O)N[C@@H](CC(C)C)C(=O)N[C@@H](Cc1ccccc1)C(=O)N[C@@H](Cc1c[nH]c2ccccc12)C(=O)N[C@@H](CO)C(N)=O)[C@@H](C)CC` ({CH2CO}-YYKPTCDIILFWS-NH2; thioether N-6), the IC50 in data set [1] is over 5000 nM. In data set [5], the result was inactive.

Consider `CC[C@H](C)[C@H](NC(=O)[C@H](CO)NC(=O)[C@H](Cc1ccc(O)cc1)NC(=O)[C@H](Cc1ccc(O)cc1)NC(=O)[C@H](CCCCN)NC(=O)[C@H](CC(=O)O)NC(=O)[C@H](Cc1ccccc1)NC(=O)[C@H](CC(C)C)NC(=O)[C@H](C)NC(=O)[C@H](CO)NC(=O)[C@H](Cc1ccc(O)cc1)NC(C)=O)C(=O)N1CCC[C@H]1C(=O)N[C@H](CS)C(N)=O`, for which the IC50 in data set [1] was 4500 nM. As for Ac-YSILFDKAYSIPC-NH2, in data set [1], the IC50 was 338 nM.

For the compound `CC[C@H](C)[C@@H]1NC(=O)[C@H](Cc2ccccc2)NC(=O)[C@H](CO)NC(=O)[C@H]([C@@H](C)CC)NC(=O)[C@H](Cc2ccc(O)cc2)NC(=O)[C@H](CC(=O)O)NC(=O)[C@@H]2CCCN2C(=O)[C@H](CCCCN)NC(=O)[C@H](CC(C)C)NC(=O)CSC[C@@H](C(N)=O)NC(=O)[C@H](Cc2ccc(O)cc2)NC(=O)[C@H](Cc2ccc(O)cc2)NC(=O)[C@H](CO)NC1=O` ({CH2CO}-LKPDYISFISYYC-NH2; thioether N-13), in data set [1], the outcome was inactive. Take `CC(C)C[C@@H]1NC(=O)[C@H](CCCNC(=N)N)NC(=O)[C@H](Cc2ccc(O)cc2)NC(=O)CSC[C@@H](C(N)=O)NC(=O)[C@@H]2CCCN2C(=O)[C@H](CC(C)C)NC(=O)[C@H](CCCCN)NC(=O)[C@H](Cc2ccc(O)cc2)NC(=O)[C@H]([C@@H](C)O)NC(=O)[C@H](CCC(N)=O)NC(=O)[C@H](Cc2ccccc2)NC(=O)[C@H](Cc2ccccc2)NC(=O)[C@H](Cc2c[nH]c3ccccc23)NC1=O` ({CH2CO}-YRLWFFQTYKLPC-NH2; thioether N-13): the Kd in data set [2] amounted to 10 nM. Besides, the IC50 in data set [1] worked out at 78 nM.

As to Ac-ASILFDKYYSIPC-NH2, the IC50 in data set [1] was determined as 700 nM.
